Here are results for six compounds from publication PMC9148403, “1,3,5-triazines inhibit osteosarcoma and avert lung metastasis in a patient-derived orthotopic xenograft mouse model with favorable pharmacokinetics” (Iranian Journal of Basic Medical Sciences, 2022).

Data set [1] deals with PI3K. Description: PI3K luminescent kinase assay (Promega). The class given is biochemical. Particulars: read-out: Kinase inhibition IC50 PI3K. An excerpt: (§1) PI3K and mTOR kinase inhibition assay
(§2) The inhibitory activity of developed molecules against PI3K and mTOR was identified using luminescent kinase assay, and Lance Ultra assay from Promega, USA, respectively as per our earlier reported procedure ([38]).

For data set [2], the system named is K562. Description: Cellular antiproliferation assay (CCK-8), K562. In kind it is cell-based, human. The following applies: K562 cells, read-out: Cell growth inhibition IC50 K562.
Data set [3] has as its system Saos-2. Description: Cellular antiproliferation assay (CCK-8), Saos-2. In kind it is cell-based, human. Particulars: Saos-2 cells, read-out: Cell growth inhibition IC50 Saos-2. On the procedure: The human osteosarcoma cancer cell lines MG-63, U2-OS, and Saos-2 were purchased from CBSIBCB of the Chinese Academy of Sciences (Shanghai, China)
Cellular antiproliferation assay using cell counting kit (CCK-8)
The CCK-8 assay was used in the current study to analyze the effect of compounds on cellular proliferation. The transfected cells were seeded in a 96-well plate, and to this CCK-8 (20 µl) was added. The enzyme microplate reader at 450 nm was used to record the absorbance. The inhibitory effect on cellular proliferation was obtained as per the given formula: Inhibitory activity (%) = (1 - Atest/Acontrol) × 100 %.

Data set [4] concerns KU812. The data set is described as follows: Cellular antiproliferation assay (CCK-8), KU812. Particulars: KU812 cells, read-out: Cell growth inhibition IC50 KU812. The class given is cell-based, human.
The target of data set [5] is mTOR (Homo sapiens, UniProt P42345). Description: mTOR Lance Ultra kinase assay. In kind it is biochemical. Particulars: read-out: Kinase inhibition IC50 mTOR.
Source text: as §1, §2

Data set [6] has as its system Saos-2 cells. The data set is described as follows: Cell cycle analysis by flow cytometry. In kind it is cell-based, human. Particulars: Saos-2 cells, 10, 20 and 30 µM. Here is the method: The effect of compound 8a (0, 10, 20, and 30 µM) was investigated on the cell cycle of Saos-2 cells as per our earlier reported procedure using a FACSCalibur flow cytometer with CellQuest V.3.3 software (BD Biosciences, USA) ([38]).
On the technique in general: In flow cytometry, cells or beads pass a laser one at a time.

For data set [7], the system named is patient-derived osteosarcoma. Description: Osteosarcoma patient-derived orthotopic xenograft (PDOX) mouse model. The class given is in vivo, Athymic nu/nu nude mice. Here is the method: Surgical orthotopic implantation (SOI) for the establishment of the osteosarcoma PDOX model
The PDOX model in Athymic nu/nu nude mice was established according to our earlier reported procedure ([38]). The tumor tissue for implantation was obtained from a OS patient with written informed consent.
The mice were arbitrarily categorized into four dissimilar groups (n=6), and the treatment schedule lasted for 14 days as follows. The compound 8a was dissolved in the solution of PEG400/Tween 80/Saline solution at 10/10/80 % in volume, respectively prior to intraperitoneal administration.
Groups 2, 3, and 4 received compound 8a (2, 5, and 10 mg/kg, respectively, IP, daily)
The control animals received the vehicle only.
The length and width of the tumor along with the bodyweight of mice were recorded.
The tumor volume was calculated with the following formula:
Tumor volume (mm^3)= length (mm) × width (mm) × […])⁄2
Examination of lung histopathology
At the end of the experiment, the lung tissues were harvested and fixed in formalin (10%). The tissues were further entrenched in paraffin, sectioned using a microtome into 5-μm thickness. The resulting sections were dyed using hematoxylin-eosin (HE).
(In xenograft studies the graft and the host belong to different species.)

Data set [8] in a line: Pharmacokinetic assessment in SD rats. In kind it is in vivo. The following applies: for AUC 0- INF / C max / T max / T ½: rat, in vivo. On the procedure:
Pharmacokinetic assessment
The compound 8a was administered to female SD rats in a single dose of 1 and 5 mg/kg using intra-venomous and per-oral route in the vehicle. The blood samples from the rats were collected in a timely manner starting from 2 min to 24 hr. The serum was extracted from the blood-aliquots for the estimation of various pharmacokinetic parameters (T1/2, Tmax, Cmax, AUC0-INF) developed using WinNonlin software using LC-MS/MS (Applied Biosystem, USA).

For data set [9], the system named is Saos-2 cells. Description: Flow cytometric apoptosis assay (Annexin V/PI). Particulars: Saos-2 cells, 10, 20 and 30 µM. The class given is cell-based, human. On the procedure: Flow cytometric apoptosis assay
The effect of compound 8a (0, 10, 20, and 30 µM) on apoptosis was investigated on Saos-2 cells as per our earlier reported procedure using a FACSCalibur flow cytometer with CellQuest V.3.3 software (BD Biosciences, USA) ([38]).

For the compound `COc1ccc(N2CCN(Cc3ccc(C(=O)Nc4nc(C)nc(Nc5nccc(-c6nccs6)n5)n4)cc3)CC2)cc1` [Compound 8f], the IC50 – broadly, the concentration that gives 50% inhibition – in [1] is 1250 nM; in data set [2], 1200 nM; in data set [3], 905 nM; in data set [4], 1230 nM; in data set [5], 834 nM.
In the case of `Cc1nc(NC(=O)c2ccc(CN3CCN(c4ccc(O)cc4)CC3)cc2)nc(Nc2nccc(-c3nccs3)n2)n1` [Compound 8e], the 50% inhibitory concentration (IC50) in data set [1] was found to be 987 nM; in data set [2] it was 887 nM; in [3], 478 nM; in data set [4], 1140 nM; in data set [5], 456 nM.
As for `Cc1nc(NC(=O)c2ccc(CN3CCN(c4ccc(Cl)cc4)CC3)cc2)nc(Nc2nccc(-c3nccs3)n2)n1` [Compound 8a], the IC50 in [1] is 786 nM; in data set [2] it was 620 nM; in data set [3], 210 nM; in data set [4], 722 nM; in data set [5], 345 nM. Further, the “Effect on cell cycle of Saos-2 cells” value in data set [6] is given as “G2/M phase arrest”. In addition, the “Effect on lung metastasis (lung histopathology)” value in [7] (PDOX mice, 2 mg/kg IP daily, 14 days) was “does not have a significant effect”; in [7] (PDOX mice, 5 mg/kg IP daily, 14 days) it was “less necrotic lesions and minimum interstitial hemorrhages”. Further, the “Effect on lung metastasis (lung architecture, histopathology)” value in data set [7] (PDOX mice, 10 mg/kg IP daily, 14 days) is reported as “significantly restored close to normal”. Further, the “Body weight of mice” value in [7] (PDOX mice, 2, 5 and 10 mg/kg IP daily, 14 days, vs control) is “improvement in body weight”. Further, in [7] (PDOX mice, 2, 5 and 10 mg/kg IP daily, at the end of the study), the Tumor volume result is on record as “significantly reduced”. For the same compound, in [8] (SD rats, 1 mg/kg IV and 5 mg/kg PO single dose), the “Tolerability in the pharmacokinetic study” value is recorded as “well-tolerated”. Besides, the “AUC 0- INF” value was 61.201 µg·h/mL in data set [8] (iv, 1 mg/kg) and 297.326 µg·h/mL in data set [8] (po, 5 mg/kg). Also, the C max in [8] (iv, 1 mg/kg) is 8126 ng/mL; in data set [8] (po, 5 mg/kg) it was 410 ng/mL. The T max in [8] (iv, 1 mg/kg) came to 0.13 h; in [8] (po, 5 mg/kg), 2.67 h. Besides, the “T ½” value was 0.75 h in [8] (iv, 1 mg/kg) and 3.5 h in [8] (po, 5 mg/kg). For the same compound, in data set [9], the “Effect on apoptosis of Saos-2 cells” value is given as “dose-dependently increases apoptosis”.
As to `Cc1ccc(N2CCN(Cc3ccc(C(=O)Nc4nc(C)nc(Nc5nccc(-c6nccs6)n5)n4)cc3)CC2)cc1` [Compound 8c], the IC50 amounted to 967 nM in data set [1]; 900 nM in data set [2]; 530 nM in data set [3]; 1030 nM in [4]; 490 nM in [5].
Take `Cc1nc(NC(=O)c2ccc(CN3CCN(c4ccc(Br)cc4)CC3)cc2)nc(Nc2nccc(-c3nccs3)n2)n1` [Compound 8b]: the IC50 in data set [1] was 885 nM; in data set [2], 730 nM; in [3], 268 nM; in [4] it was 830 nM; in [5], 389 nM.
As for `Cc1nc(NC(=O)c2ccc(CN3CCN(c4ccc([N+](=O)[O-])cc4)CC3)cc2)nc(Nc2nccc(-c3nccs3)n2)n1` [Compound 8d], the IC50 was 905 nM in data set [1]; 822 nM in [2]; 340 nM in [3]; 950 nM in data set [4]; 414 nM in data set [5].
